From patent publication US6900239B2, “Tumor chemopotentiation using isocoumarin derivatives” (ILWZ ILEX Products, Inc., priority 2000, dated 2005)

Assays:
[1] = system: MDAMB-435 human breast tumor xenografts; assay: MDAMB-435 orthotopic model, NM-3 with paclitaxel, second study (100 mm^3) and delivery routes; type: in vivo, female NCRNU nude mice
Procedure: In order to determine the effect of the combination of NM-3 with the cytotoxic drug, paclitaxel on human breast tumor xenografts, female NCRNU nude mice were implanted with MDAMB-435 cells into the subaxillary mammary fat pad. NM-3 was administered via intraperitoneal (i.p.) injection daily at doses ranging from 10-100 mg/kg; paclitaxel was administered via i.p. injection every 7 days, starting on day 0, at 10 mg/kg.
In a second study, treatment was initiated when tumor volumes reached 100 mm^3. Paclitaxel was administered at the fixed dose of 12.5 mg/kg, q7d and NM-3 was dosed at 10 and 100 mg/kg, i.p. daily for 28 days.
A comparison was also made between different delivery routes of NM-3 in the combination studies. NM-3 given i.p. daily, bid, and continuously using Alzet mini osmotic pumps in combination with paclitaxel was evaluated for effectiveness in reducing tumor growth.

[2] = system: human tumor cells and normal mouse cells; assay: Cell growth (WST-1), summary over all cell lines; type: cell-based
Procedure: To determine the extent to which NM-3 [2-(8-hydroxy-6-methoxy-1-oxo-1H-2-benzopyran-3-yl) propionic acid] inhibited the proliferation of, or was cytotoxic toward, human tumor cells and normal mouse cells, a variety of cell lines were grown in the presence of NM-3. The human cell lines used were K562 (leukemia cells), HT29 (colon tumor cells) HT1080 (reticulum blast sarcoma cells), and MCF7 (breast tumor cells). The mouse cells used were NIH3T3 cells (fibroblasts). All cell lines were cultured in 96-well plates to a density of 2-5×10^3 cells/well. Culture medium (RPMI 1640 plus 10% FBS) alone or containing NM-3 at one of several concentrations tested was then added to the cultures which were allowed to grow for an additional 3 days. To assess cell growth, 10 μl of WST-1 reagent (a chromogenic substrate for living cells) was added to each well and incubation continued for 3 hrs at 37° C. Absorbance at 450 nm was then determined using a plate reader.

[3] = system: MM1.S human multiple myeloma cells; assay: Cell viability by MTT assay; type: cell-based
Procedure: NM-3 was dissolved in Mg^2+ and Ca^2+ free phosphate buffered saline (PBS) by adding appropriate volume of 10 N NaOH (final pH<7.0). DEX was dissolved in absolute ethanol and diluted with PBS. Final concentration of ethanol in the culture medium was 0.5% or less. DOX was dissolved in PBS.
(§1) The human multiple myeloma cell line MM1.S was maintained in RPMI1640 medium supplemented with 10% fetal bovine serum, 100 units/ml penicillin, and 100 μg/ml streptomycin at 37° C. in an atmosphere of 5% CO2 in air. Cells (3×10^4 cells/well) were seeded in 96 well-plates and incubated with increasing concentrations of DEX or DOX in the presence or absence of NM-3. NM-3 was added at concentrations of 0, 50, 100 and 200 μg/ml 2 hours before the addition of DOX or DEX. After 24 hours of DOX or DEX exposure, 10 μl of MTT reagent (Roche Molecular Biochemicals, final concentration 0.5 mg/ml) was added to each well and allowed to incubate for 4 hours. After the incubation, 100 μl of solubilization solution (10% sodium dodecyl sulfate in 0.01M HCl) was added to each well and allowed to incubate overnight. Optical density at 565 nm was determined using a spectrophotometer (Molecular Devices Corp.).

RPMI8662 cells = assay: Cell viability by MTT assay; type: cell-based, human
Procedure: as §1
(§2) The effects of NM-3 in combination with dexamethasone on the viability of RPM18662 and U266 human multiple meyeloma cells were investigated. Experimental conditions were as described in Example 11, with the exception that cells were seeded at 6×10^3 cells/well and the cells were incubated with the appropriate concentrations of NM-3 and DEX for either 48 or 72 hours prior to addition of the MTT reagent.

U266 cells = assay: Cell viability by MTT assay; type: cell-based, human
Procedure: as §1, §2

colon 26 adenocarcinoma = assay: Combination with cyclophosphamide, survival; type: in vivo, BALB/c mice
Procedure: To determine the effect on tumor growth of NM-3 treatment combined with simultaneous cyclophosphamide treatment, colon 26 adenocarcinoma cells (5×10^4 cells per mouse) were subcutaneously transplanted into BALB/c mice (female, 7 weeks old) in the inguinal area. NM-3 was continuously orally administered from day 1 to day 72 after the transplantation except on day 14 when cyclophosphamide was dosed.

Ehrlich carcinoma = assay: Ehrlich solid tumor growth; type: in vivo, ICR mice; settings: for Inhibition (%): days 1~14; for Mean Tumor Weight (mg ± S.D.): days 1~14, measured day 15
Procedure: To determine the antitumor effect of NM-3 on growth of a solid tumor in vivo, 4×10^6 Ehrlich carcinoma cells per mouse were subcutaneously transplanted into ICR mice (female, 6 weeks old) in the inguinal area. NM-3 was continuously administered via the oral route for 14 days. Tumor weights were then measured on day 15 (Table 2). […] Thus, NM-3 treatment is associated with a significant reduction in the growth of solid tumors.

[4] = NM-3 alone, 50 and 100 μg/ml, 72 hours preincubation
[5] = NM-3 alone, 48 hour preincubation
[6] = NM-3 1 mg/kg p.o. days 1-13, 15-72 alone
[7] = NM-3 5 mg/kg p.o. days 1-13, 15-72 alone

## COc1cc(O)c2c(=O)oc(C(C)C(=O)O)cc2c1 (centres unmarked) [NM-3, 2-(8-hydroxy-6-methoxy-1-oxo-1H-2-benzopyran-3-yl) propionic acid]
[1]; NM-3 100 mg/kg I.P. daily alone
  % Tumor Growth Inhibition: 26.67%
[1]; NM-3 100 mg/kg I.P. daily alone, 28 days
  Final Tumor Ratio (V/Vo) +/− SEM: 4.70 ± 0.56 V/Vo
[1]; NM-3 100 mg/kg I.P. daily alone, n 9
  Mice with Complete Shrinkage: 0
[1]; NM-3 alone, daily dose of 10 mg/kg
  Tumor growth inhibition: no significant tumor growth inhibition
[2]
  IC50: > 100 µg/mL
[3]; NM-3 50-200 μg/ml added 2 hours before DEX, 24 hours
  Potentiation of DEX-induced cell death: potentiated DEX-induced cell death
[3]; NM-3 alone, 50-200 μg/ml
  Cell viability: only slightly decreased the cell viability
RPMI8662 cells; 48 or 72 hours
  Potentiation of DEX-induced cell death: potentiated DEX-induced cell death
RPMI8662 cells; [4]
  Decrease in cell viability: less evident
RPMI8662 cells; [5]
  Cell viability: dose dependent decrease in cell viability
U266 cells; 48 or 72 hours
  Potentiation of DEX-induced cell death: potentiated DEX-induced cell death
U266 cells; [4]
  Decrease in cell viability: less evident
U266 cells; [5]
  Cell viability: dose dependent decrease in cell viability
Colon 26 adenocarcinoma; [6]
  Mean Survival Days (days ± S.D.): 33.9 ± 13.6 days
  T/C (%): 102.7%
Colon 26 adenocarcinoma; [7]
  Mean Survival Days (days ± S.D.): 23.5 ± 3.7 days
  T/C (%): 71.2%
Colon 26 adenocarcinoma; NM-3 alone, 1 or 5 mg/kg
  Survival times versus control: did not increase survival times
Ehrlich carcinoma; 0.63 mg/kg p.o.
  Inhibition (%): 33.1%
Ehrlich carcinoma; 1.25 mg/kg p.o.
  Inhibition (%): 59.5%
  Mean Tumor Weight (mg ± S.D.): 497.7 ± 265.5 mg
Ehrlich carcinoma; 2.5 mg/kg p.o.
  Inhibition (%): 57.7%
  Mean Tumor Weight (mg ± S.D.): 519.5 ± 319.3 mg
Ehrlich carcinoma; 5 mg/kg p.o.
  Inhibition (%): 52.0%
  Mean Tumor Weight (mg ± S.D.): 589.7 ± 338.3 mg
Ehrlich carcinoma; 1.25 to 5 mg/kg p.o.
  Tumor size versus control: significantly reduced in size
